Bridge positions count the residues as written; N and C are the ends. Peptide text beside a SMILES is read from it.
Assays:
[1] = organism: Homo sapiens; test: Tested for induction of interleukin-1 production from human peripheral blood mononuclear cell (PBMC) of 2x10 e6 cells at 1 ug/mL; format: functional
[2] = organism: Homo sapiens; test: Tested for induction of interleukin-1 production from human monocyte of 1x 10 e5 cells at 10 ug/mL; format: functional
[3] = test system: HeLa; test: Tested for cytotoxicity index against HeLa cell line by MTT method at 0.1 ug/mL concentration; format: functional, Homo sapiens
[4] = test system: HeLa; test: Tested for cytotoxicity index against HeLa cell line by MTT method at 1.0 ug/mL concentration; format: functional, Homo sapiens
[5] = test system: HEp-2; test: Tested for cytotoxicity index against HEP-2 cell line by MTT method at 1.0 ug/mL concentration; format: functional, Homo sapiens
[6] = test system: HEp-2; test: Tested for cytotoxicity index against HEP-2 cell line by MTT method at 0.1 ug/mL concentration; format: functional, Homo sapiens
[7] = organism: Homo sapiens; test: Tested for induction of interleukin-1 from human peripheral blood mononuclear cell (PBMC) of 2x10 e6 cells at 1 ug/mL; format: functional

**Q.** What does the source list for `CC(C)C[C@@H]1NC(=O)[C@H](CCC(N)=O)NC(=O)[C@@H](N)CC(=O)NCCCC[C@@H](C(=O)NCC(=O)O)NC(=O)[C@H](CO)NC1=O` (H-DQLSKG-OH; lactam 1-5)?
**A.** IL-1 production [1]: 579 pg/mL; IL-1 production [2]: 1047 pg/mL

**Q.** Which results are given for `COc1cccc2c1C(=O)c1c(O)c3c(c(O)c1C2=O)C[C@@](O)(C(=O)CO)C[C@@H]3O[C@H]1C[C@H](N)[C@H](O)[C@H](C)O1` [DOXORUBICIN]?
**A.** Cytotoxicity index [3]: 50.6; Cytotoxicity index [4]: 96.6; Cytotoxicity index [5]: 75.5; Cytotoxicity index [6]: 39

**Q.** With H-KGDRLS-OH [TNF-ALPHA] as the compound, how does the IL-1 production [7] read?
**A.** The IL-1 production was 741 pg/mL.

Source: ChEMBL document CHEMBL1126577, “Studies of the synthesis, immunology, and cytotoxicity of a cyclic octapeptide corresponding to TNF-alpha-(59-66)” (1993)
